Experimental data as given in patent US8598132B2, “Glycosylated indolocarbazoles, method for obtaining same and uses thereof” (Universidad de Oviedo, priority 2008, dated 2013).

Legend:
Type in all cases: biochemical
FGFR3 = FGFR3 (Homo sapiens, UniProt P22607); assay: LabChip (Caliper) kinase assay, FGFR3; settings: read-out: remaining kinase activity (in %) / percentage of inhibition; for inhibition at 0.01 µM: compound at 10 nM; for inhibition at 0.1 µM: compound at 100 nM
Method: (§1) The analysis of kinase activity described here was performed using LabChip (Caliper Life Sciences), specifically the Caliper LC3000 and the EZ Reader II instruments.
(§2) The kinase assay used measures the conversion of a fluorescent peptide (substrate) to a phosphorylated product. The reaction mixture, in a microplate well, is introduced by a capillary in a chip where the non-phosphorylated substrate and the phosphorylated product are separated by […]. The intensity of the fluorescent signal over time is related to the reaction progress. The phosphorylated product migrates quicker than the non-phosphorylated substrate and the signals of the two forms of the peptide appear as differentiated peaks. The Caliper determines the peak height and calculates the ratio of product to the peak sum (P/(P+S)). This value is used to compare wells with compounds and wells with controls and thus determine the % of inhibition for the given product.
(§3) The followings kinases were used for the enzymatic inhibition studies, between brackets the value of the Michaelis-Menten constant, Km, of the ATP (Adenosine triphosphate) for each kinase, in μM: obtained from Carna Biosciences: MAPKAPK2 (4.6), AurA (3.6), AurB (5), PKCζ (3.8), RSK1 (23.3), PRAK (5), Erk1 (33.4), PKD2 (32.1), CK1d (16.3), CHK1 (33), ABL (61.7), FYN (36), LYNa (17), CHK2 (57.8), MET (79.5), LCK (28.5), SRC (38), GSK3β (7.3), Erk2 (62.1), PKACα (1.7), AKT2 (186.1), INSR (871.8), p38a (396.5), AKT1(48), MSK1 (21.2), PKCβ2 (84.8), ROCK2 (3.3), PIM2 (4.9), AMPK (38.6), KDR (164.8), IRAK4 (196.5), SGK1 (121.8), SYK (33.5); obtained from Invitrogen: CDK2 (57.6), BTK (123), HGK (80); obtained from Upstate: MST2 (36.6), PKGα (16), PAK2 (1.9), IGF1R (320), FGFR1 (171), MARK1 (33), CAMK2δ (22.4), c-TAK1 (66), DYRK1a (18.1), CaMK4 (3.9), FLT3 (350), c-Raf (6.2), P70S6K (95).
(§4) The compounds were dissolved in 100% DMSO and were diluted at 25 times the final concentration desired for the assay. In the case of the determination of Cl50, serial dilutions were made to reach eight concentrations and give rise to the inhibition curve. 1 μL of each concentration is transferred, in duplicate to a 384-well microplate. 12 μL of enzymatic buffer is added to each well containing purified kinase (several suppliers as indicated above), 100 mM HEPES, pH 7.5, 1 mM DTT (Calbiochem), 0.002% Brij-35 (Sigma) and also in presence of 10 mM MgCl2 as cofactor, except for INSR and IRAK4 wherein 10 mM MnCl2 is used instead of MgCl2. For the kinases CAMK26 and CAMK4, 1 mM CaCl2 and 6.7 μg/mL of calmodulin are also added. For KDR kinase, 0.05% of the CHAPSO detergent is added. For the c-Raf kinase, 10 mM MnCl2 is added. For PKCβ2 0.02 μg/mL of PS/PMA is added. For PKGα se 10 μM of cGMP (cyclic guanosine monophosphate) is added. The compound and the enzyme are left for 15 minutes preincubation and, then, the following are added to each well: 12 μL of peptide buffer/ATP containing 100 mM HEPES, pH 7.5, 1.5 μM peptide marker with fluorescein (specific for the corresponding kinase), ATP (at concentration KM), and 0.002% Brij-35 to start the reaction. Generally, the reactions are incubated for 1-1.5 h at ambient temperature to obtain an adequate conversion (15-40%) of the peptide to the phosphorylated product. The reactions were ended by the addition of 45 μL of buffer containing 0 mM EDTA. The microplates were read by the LabChip 3000 using a 12-channel LabChip. The P/(P+S) values were obtained as described above and the CI50 curves were generated using XIfit.
For example, the activity of the Dyrk1a kinase is inhibited in 87% by the compound of formula (III) and completely by the compound of formula (XII) when used at a concentration of 10 nM.

Ikkb = biological target: T1, Ikkb (Homo sapiens, UniProt O14920); assay: LabChip (Caliper) kinase assay, Ikkb; settings: for inhibition at 0.01 µM: compound at 10 nM; for inhibition at 0.01 µM / inhibition at 0.1 µM: read-out: remaining kinase activity (in %) / percentage of inhibition; for inhibition at 0.1 µM: compound at 100 nM; for IC50: ATP at Km, read-out: CI50 (the source's name)
T1 sequence (O14920 1-756): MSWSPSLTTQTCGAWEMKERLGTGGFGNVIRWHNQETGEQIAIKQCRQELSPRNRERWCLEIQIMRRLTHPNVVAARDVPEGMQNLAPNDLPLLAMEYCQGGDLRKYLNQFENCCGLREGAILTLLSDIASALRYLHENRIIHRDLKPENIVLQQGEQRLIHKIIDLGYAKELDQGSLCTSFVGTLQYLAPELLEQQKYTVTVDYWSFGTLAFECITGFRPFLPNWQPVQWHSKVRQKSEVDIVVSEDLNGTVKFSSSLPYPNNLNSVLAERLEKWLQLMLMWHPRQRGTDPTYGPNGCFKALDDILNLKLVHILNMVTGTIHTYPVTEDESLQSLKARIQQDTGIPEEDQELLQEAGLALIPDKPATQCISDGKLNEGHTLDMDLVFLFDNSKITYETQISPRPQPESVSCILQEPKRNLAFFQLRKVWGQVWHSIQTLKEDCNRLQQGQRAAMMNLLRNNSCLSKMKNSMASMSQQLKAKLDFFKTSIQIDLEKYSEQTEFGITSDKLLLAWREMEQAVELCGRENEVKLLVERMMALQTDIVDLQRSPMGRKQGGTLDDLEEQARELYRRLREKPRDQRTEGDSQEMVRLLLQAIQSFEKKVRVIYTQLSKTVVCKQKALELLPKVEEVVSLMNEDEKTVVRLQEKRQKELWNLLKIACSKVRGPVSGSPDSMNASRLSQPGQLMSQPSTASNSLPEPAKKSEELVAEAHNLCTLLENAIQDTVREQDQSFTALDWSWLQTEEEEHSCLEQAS
Method: as §1, §2, §3, §4
(§5) Table 9a has the 0150 data obtained in pairs of compound-kinase selected from the compounds of formula (VII), (VIII), (IX), (XVI), (XVII) and (XVIII) after taking inhibition measurements at 100 nM and 10 nM. Those couples that provide >70% of inhibition at 10 nM were consider for measuring its IC50. […]

KDR = biological target: T2, KDR (Homo sapiens, UniProt P35968); assay: LabChip (Caliper) kinase assay, KDR; settings: for inhibition at 0.01 µM: compound at 10 nM; for inhibition at 0.01 µM / inhibition at 0.1 µM: read-out: remaining kinase activity (in %) / percentage of inhibition; for inhibition at 0.1 µM: compound at 100 nM; for IC50: ATP at Km, read-out: CI50 (the source's name)
T2 construct: purchased Carna Biosciences
T2 sequence (P35968 20-1356): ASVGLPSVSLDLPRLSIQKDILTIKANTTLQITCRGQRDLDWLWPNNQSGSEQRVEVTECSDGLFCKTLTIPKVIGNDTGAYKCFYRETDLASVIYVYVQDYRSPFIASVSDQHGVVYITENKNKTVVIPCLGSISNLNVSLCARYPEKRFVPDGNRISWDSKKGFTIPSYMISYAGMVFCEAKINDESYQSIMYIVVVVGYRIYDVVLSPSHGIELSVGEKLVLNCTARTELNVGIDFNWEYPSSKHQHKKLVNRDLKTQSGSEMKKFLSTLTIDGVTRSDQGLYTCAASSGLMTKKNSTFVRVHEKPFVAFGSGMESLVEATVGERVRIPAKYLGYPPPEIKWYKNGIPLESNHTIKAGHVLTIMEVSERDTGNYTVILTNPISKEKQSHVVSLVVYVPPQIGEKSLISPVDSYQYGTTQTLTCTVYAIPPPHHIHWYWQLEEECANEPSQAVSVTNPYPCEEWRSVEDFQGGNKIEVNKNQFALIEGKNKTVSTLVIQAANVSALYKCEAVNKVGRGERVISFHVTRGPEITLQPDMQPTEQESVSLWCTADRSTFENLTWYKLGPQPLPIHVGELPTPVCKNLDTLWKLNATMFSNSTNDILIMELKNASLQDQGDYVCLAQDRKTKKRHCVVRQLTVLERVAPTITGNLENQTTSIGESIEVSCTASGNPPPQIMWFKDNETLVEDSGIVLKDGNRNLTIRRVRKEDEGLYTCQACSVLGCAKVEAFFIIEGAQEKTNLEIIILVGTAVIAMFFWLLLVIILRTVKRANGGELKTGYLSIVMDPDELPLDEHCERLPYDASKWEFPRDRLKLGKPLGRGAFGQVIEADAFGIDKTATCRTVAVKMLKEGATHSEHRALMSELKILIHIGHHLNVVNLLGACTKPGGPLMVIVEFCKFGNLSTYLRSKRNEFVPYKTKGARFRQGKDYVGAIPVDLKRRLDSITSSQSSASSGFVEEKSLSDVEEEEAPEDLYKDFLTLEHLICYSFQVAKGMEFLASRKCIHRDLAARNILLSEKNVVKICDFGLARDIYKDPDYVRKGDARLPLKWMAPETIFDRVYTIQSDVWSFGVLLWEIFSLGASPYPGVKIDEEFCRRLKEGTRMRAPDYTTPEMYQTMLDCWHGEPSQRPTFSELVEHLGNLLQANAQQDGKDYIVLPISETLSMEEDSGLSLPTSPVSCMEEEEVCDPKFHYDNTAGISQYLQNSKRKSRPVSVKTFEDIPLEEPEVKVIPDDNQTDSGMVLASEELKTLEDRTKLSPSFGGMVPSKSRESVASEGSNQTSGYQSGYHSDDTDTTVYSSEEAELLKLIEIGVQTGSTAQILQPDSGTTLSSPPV
Method: as §1, §2, §3, §4, §5

Sequence of FGFR3 (P22607 23-806, species assumed): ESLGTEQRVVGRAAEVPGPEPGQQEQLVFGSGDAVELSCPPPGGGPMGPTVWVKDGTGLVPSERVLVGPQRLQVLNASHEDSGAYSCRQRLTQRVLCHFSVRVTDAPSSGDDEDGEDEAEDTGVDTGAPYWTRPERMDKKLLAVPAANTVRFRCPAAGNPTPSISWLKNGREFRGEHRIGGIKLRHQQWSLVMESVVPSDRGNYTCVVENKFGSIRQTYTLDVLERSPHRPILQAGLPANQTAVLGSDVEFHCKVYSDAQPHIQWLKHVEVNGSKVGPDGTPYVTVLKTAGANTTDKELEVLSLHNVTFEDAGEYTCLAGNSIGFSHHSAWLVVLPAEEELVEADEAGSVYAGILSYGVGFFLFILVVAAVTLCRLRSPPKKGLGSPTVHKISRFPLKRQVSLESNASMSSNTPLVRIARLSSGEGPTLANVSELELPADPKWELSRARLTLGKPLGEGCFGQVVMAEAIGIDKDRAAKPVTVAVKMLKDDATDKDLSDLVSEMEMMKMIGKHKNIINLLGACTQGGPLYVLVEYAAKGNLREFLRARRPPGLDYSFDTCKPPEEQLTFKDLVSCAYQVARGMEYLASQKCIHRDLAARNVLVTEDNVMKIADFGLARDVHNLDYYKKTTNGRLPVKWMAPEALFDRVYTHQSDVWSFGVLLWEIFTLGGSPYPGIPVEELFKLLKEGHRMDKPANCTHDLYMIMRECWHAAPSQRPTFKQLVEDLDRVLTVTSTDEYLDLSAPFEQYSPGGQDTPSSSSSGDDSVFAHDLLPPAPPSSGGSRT

Row | SMILES | inhibition at 0.01 µM (FGFR3) [%] | inhibition at 0.1 µM (FGFR3) [%] | inhibition at 0.01 µM (Ikkb) [%] | inhibition at 0.1 µM (Ikkb) [%] | inhibition at 0.01 µM (KDR) [%] | inhibition at 0.1 µM (KDR) [%] | IC50 (Ikkb) [nM] | IC50 (KDR) [nM]
1 | C[C@@H]1O[C@@H](n2c3ccccc3c3c4c(c5c6ccccc6[nH]c5c32)C(=O)NC4=O)[C@H](O)[C@H](O)[C@H]1O [formula (III), N^13-1′-β-L-rhamnosylarcyriaflavin] | -10 | -4 | -10 | 32 | -7 | 21 | – | –
2 | C[C@@H]1O[C@@H](n2c3ccccc3c3c4c(c5c6ccccc6[nH]c5c32)C(=O)NC4=O)C[C@H](O)[C@H]1O [formula (IV), N^13-1′-β-L-olivosylarcyriaflavin] | -6 | 3 | 9 | 60 | 21 | 68 | – | –
3 | C[C@]12O[C@H](C[C@@H](O)[C@H]1O)n1c3ccccc3c3c4c(c5c6ccccc6n2c5c31)C(=O)NC4=O [formula (IX), N^12-5′(S)-N^13-1′-(R)-L-digitoxosylarcyriaflavin] | – | – | – | – | – | – | > 10 | > 10
4 | C[C@@H]1O[C@@H](n2c3ccccc3c3c4c(c5c6ccccc6[nH]c5c32)C(=O)NC4=O)C[C@@H](O)[C@H]1O [formula (V), N^13-1′-β-L-digitoxosylarcyriaflavin] | -6 | -1 | 37 | 76 | 28 | 63 | – | –
5 | C[C@H]1O[C@@H](n2c3ccccc3c3c4c(c5c6ccccc6[nH]c5c32)C(=O)NC4=O)C[C@@H](O)[C@@H]1O [formula (VI), N^13-1′-β-D-olivosylarcyriaflavin] | -8 | -11 | 7 | 50 | 2 | 40 | – | –
6 | C[C@]12O[C@H]([C@H](O)[C@H](O)[C@H]1O)n1c3ccccc3c3c4c(c5c6ccccc6n2c5c31)C(=O)NC4=O [formula (VII), N^12-5′(S)-N^13-1′-(R)-L-rhamnosylarcyriaflavin] | – | – | – | – | – | – | 0.17 | 3.7
7 | C[C@]12O[C@H](C[C@H](O)[C@H]1O)n1c3ccccc3c3c4c(c5c6ccccc6n2c5c31)C(=O)NC4=O [formula (VIII), N^12-5′(S)-N^13-1′-(R)-L-olivosylarcyriaflavin] | – | – | – | – | – | – | < 0.03 | 0.55
8 | C[C@@H]1O[C@@H](n2c3ccccc3c3c4c(c5c6ccccc6[nH]c5c32)CNC4=O)[C@H](O)[C@H](O)[C@H]1O [formula (XII), N^13-1′-β-L-rhamnosyl-k252c] | -2 | -1 | -5 | 12 | -1 | 6 | – | –
9 | C[C@@H]1O[C@@H](n2c3ccccc3c3c4c(c5c6ccccc6[nH]c5c32)CNC4=O)C[C@H](O)[C@H]1O [formula (XIII), N^13-1′-β-L-olivosyl-k252c] | -4 | -6 | -5 | 33 | 7 | 48 | – | –
10 | C[C@@H]1O[C@@H](n2c3ccccc3c3c4c(c5c6ccccc6[nH]c5c32)CNC4=O)C[C@@H](O)[C@H]1O [formula (XIV), N^13-1′-β-L-digitoxosyl-k252c] | -6 | -11 | 27 | 24 | 1 | 16 | – | –
11 | C[C@H]1O[C@@H](n2c3ccccc3c3c4c(c5c6ccccc6[nH]c5c32)CNC4=O)C[C@@H](O)[C@@H]1O [formula (XV), N^13-1′-β-D-olivosyl-k252c] | -20 | -13 | -5 | 16 | -4 | 18 | – | –
12 | C[C@]12O[C@H](C[C@@H](O)[C@H]1O)n1c3ccccc3c3c4c(c5c6ccccc6n2c5c31)CNC4=O [formula (XVIII), N^12-5′(S)-N^13-1′-(R)-L-digitoxosyl-k252c] | – | – | – | – | – | – | > 100 | > 10
